Anticancer effect data for 1 molecule are collected here from US7071218B2, “N-substituted heterocycles for the treatment of hypercholesteremia, dyslipidemia and other metabolic disorders; cancer, and other diseases” (Incyte San Diego Incorporated, priority 2001, dated 2006).

The subject of experiment [1] is PC-3 prostate cancer cells. Kind of experiment: MTT anti-cancer assay, PC-3 prostate cancer cells. It is filed as cell-based, human. Particulars: PC-3, 6 days. From the text: (§1) The anti-cancer activity of the compounds of the invention herein have been tested in in vitro assays using a microculture assay with 3-(4,5-dimethylthiazol-2-yl)-2,5-diphenyltetrazolium bromide (“MTT”) a test well known to those skilled in the art. This assay has an advantage over in vivo assay in that results are obtained within a week as opposed to several months. The assay can be carried out in 96-well microtiter plates. The MTT assay is based on the production of a dark blue formazan product by dehydrogenase in the mitochondria of live tumor cells after exposure to drug for 6 days [M. C. […] Thus, only live cells are stained and can be measured at 595 nm. […]
(§2) Treatment: Before commencing drug treatment, cells were replenished with media containing 0.5% FCS. […] As an end point, the amount of surviving cells (Live cells) was measured using a standard […] assay (MTT based), and calculated as percentage of cells treated with vehicle (DMSO) alone (% control).
(§3) MTT assay: The assay is based on the cleavage of the yellow tetrazolium salt MTT to purple formazan crystals by dehydrogenase activity in active mitochondria. […] The formazan crystals formed are solubilized and the resulting colored solution is quantified using a scanning multiwell spectrophotometer. […]
(Formazan colour is commonly taken as a measure of viable cells.)

Experiment [2] has as its system human cancer cell lines (A549, MDA-MB-468, PC-3, Bx-PC3). Description: MTT anti-cancer assay, the other cancer cell lines of the panel. The experiment is classed as cell-based. Particulars: cell lines other than PC-3 (A549, MDA-MB-468, Bx-PC3), compared to PC-3.
Source text: as §1, §2, §3

With `COc1cccc(/C=C2\SC(=S)N(CC(=O)O)C2=O)c1-c1cc2c(cc1C)C(C)(C)CCC2(C)C` [Compound 9, {5-[3-Methoxy-2-(3,5,5,8,8-pentamethyl-5,6,7,8-tetrahydro-naphthalen-2-yl)-benzylidene]4-oxo-2-thioxo-thiazolidin-3-yl}-acetic acid], the results for the anticancer effect entry in experiment [1] and in experiment [2] were “very potent anticancer effect” and “less pronounced”, respectively.
